Assay results as given in patent US8026228B2, “Estrogenic compounds in combination with progestogenic compounds in hormone-replacement therapy” (Pantarhei Bioscience B.V., priority 2001, dated 2011).

Assays:
[1] = molecular target: T1, human sex Hormone Binding Globulin (SHBG) (Homo sapiens, UniProt P04278); assay: Competitive steroid-binding assay; details: [^3H]DHT or [^3H]estradiol as labeled ligands; order ethinylestradiol, 17β-estradiol, testosterone, 5α-dihydrotestosterone
T1 construct: Human SHBG was purified from transgenic mouse serum; made in house; host or cells: transgenic mouse (serum)
T1 sequence (P04278 30-402): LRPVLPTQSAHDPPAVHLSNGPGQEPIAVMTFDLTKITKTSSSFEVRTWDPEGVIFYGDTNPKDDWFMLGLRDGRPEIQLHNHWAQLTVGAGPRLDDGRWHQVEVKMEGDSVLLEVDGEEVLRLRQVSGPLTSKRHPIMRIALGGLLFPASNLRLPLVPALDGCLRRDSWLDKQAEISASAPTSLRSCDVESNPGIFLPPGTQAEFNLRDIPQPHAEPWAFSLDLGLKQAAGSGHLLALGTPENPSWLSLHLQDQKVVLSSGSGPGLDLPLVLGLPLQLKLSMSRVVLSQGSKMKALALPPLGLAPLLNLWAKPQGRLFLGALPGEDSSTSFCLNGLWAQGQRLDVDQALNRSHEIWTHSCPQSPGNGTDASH
Procedure: Human SHBG was treated for 30 min at room temperature with a dextran-coated charcoal (DCC) suspension in phosphate buffered saline (PBS) to remove any steroid ligand. After centrifugation (2,000×g for 10 min) to sediment the DCC, the supernatant containing the human SHBG was diluted in PBS to a concentration of 1 nM based on its steroid binding capacity.
The average amounts of [^3H]labeled ligands bound to SHBG at each concentration of competitor (B) were expressed as a percentage of the average amounts of [^3H]labeled ligands bound to SHBG in the absence of competitor (B0), and were plotted against the concentration of competitor in each assay tube.

ovariectomized rats = assay: Vaginal cornification bioassay, oral administration; format: in vivo, rat; details: relatively low doses 0.1 and 0.3 mg/kg/day, compared with EE
From the text: Uterine weight increase in the rat is more commonly used as a measure of estrogenicity. […] In the early 1920s it was discovered that follicular fluid from the pig ovary contained a factor(s) that caused cornification/keratinization of the vaginal epithelium in the rat (Allen and Doisy, 1923, JAMA, 81, 819-821; Allen and Doisy, 1924, Am. J. Physiol., 69, 577-588). The so-called vaginal cornification response in rats subsequently provided a bioassay for testing estrogenicity. Vaginal epithelial cornification/keratinization in ovariectomized rats can be produced only by compounds considered to be true estrogens (Jones et al, 1973, Fert. Steril. 24, 284-291). […] Adult intact female CD rats were ovariectomized to induce estrogen deficiency. […] Castrate vaginal smears are indicative that complete ovariectomy was achieved. Treatment commenced following completion of the 7 days of smearing (day 0=first day of dosing). Animals were dosed, once daily for 7 consecutive days. Daily vaginal lavages continued to be obtained for 7 days after dosing was initiated in order to detect vaginal cornification, as an indication of an estrogenic response. […] Data are expressed as the number of rats showing vaginal cornification over the number of rats (ratio) treated.

Sham- and OVX-rats [2] = assay: Osteoporosis model: ex vivo pQCT densitometry of proximal tibiae; format: in vivo, rat; details: po 0.1-[…], 4 weeks
Procedure: (§1) The ovariectomized aged rat was used as a model for the human disease osteoporosis. This is an established animal model, recommended by the United States Food and Drug Administration (FDA), to evaluate and assess potential agents for osteoporosis prevention and therapy. The anti-resorptive efficacy of estetrol (E4) was tested by ex vivo measuring total and trabecular bone mineral density and bone strength after 4 weeks of treatment at necropsy. 17α-ethinyl-estradiol (EE) and vehicle (1% ethanol/arachidis oil) served as controls in this bioassay.
Three months old female Sprague-Dawley rats were either sham-operated (Sham) or ovariectomized (OVX) one day prior to commencement of the dosing study. Animals were anesthetized using a ketamine/xylazine anesthetic mixture and underwent a bilateral ovariectomy or were sham-treated. […]
Ex vivo peripheral Quantitative Computed Tomography (pQCT) was performed on the excised left tibiae using a Stratec XCT-RM and associated software (Stratec Medizintechnik GmbH, Pforzheim, Germany, software version 5.40). […] The scans were analyzed using a threshold for delineation of the external boundary. The total and trabecular bone mineral content, area and density at each site were determined. […]
(§2) Data are expressed as the mean values obtained for each group (n=10).

Sham- and OVX-rats [3] = assay: Osteoporosis model: indentation test of distal femur (bone strength); format: in vivo, rat; details: oral treatment, dose-dependent
Procedure: as §1
Three months old female Sprague-Dawley rats were either sham-operated (Sham) or ovariectomized (OVX) one day prior to commencement of the dosing study. Animals were anesthetized using a ketamine/xylazine anesthetic mixture and underwent a bilateral ovariectomy or were sham-treated. A section of hair on the dorsal surface was shaved and an incision made overlying the lumbar region of the spine. The skin was separated from the underlying fascia so that a second incision could be made through the abdominal musculature approximately caudal to the kidneys. […]
as §2
The maximum load, stiffness and energy absorbed were determined from load displacement curves. Ultimate strength was calculated by dividing the maximum load by the indenter area. […]

[4] = test system: morphine-dependent ovariectomized (OVX) rat; assay: Hot flush model: naloxone-induced tail skin temperature rise; format: in vivo
Procedure: The morphine-dependent ovariectomized (OVX) rat was used as a model for postmenopausal hot flush. The potency of estetrol (E4) to prevent tail skin temperature rises, normally accompanied by a drop in core body temperature, after naloxone-induced opiate withdrawal was tested. 17α-ethinyl-estradiol (EE) and vehicle (hydroxy propyl-beta-cyclodextrin 20% wt/vol) served as controls in this bioassay.
The morphine-dependent ovariectomized (OVX) rat model has been proposed by several investigators (Katovich et al, 1986, Maturitas, 67-76; Merchenthaler et al. 1998, Maturitas, 307-316) as an animal model for the hot flush. During opiate withdrawal with the morphine antagonist naloxone, tail skin temperature (TST) rises and this rise is accompanied by a drop in core body temperature. In addition, the temperature changes are accompanied by surges in LH and a transient tachycardia. These events are similar in magnitude and temporal nature to those observed in the menopausal hot flush.
Three days prior to the commencement of dosing, animals were anesthetized using a ketamine/xylazine anesthetic mixture and underwent a bilateral ovariectomy. A section of hair on the dorsal surface was shaved and an incision made overlying the lumbar region of the spine. The skin was separated from the underlying fascia so that a second incision could be made through the abdominal musculature approximately caudal to the kidneys. The ovaries were then exteriorized and removed and the musculature was closed with a single suture. The skin incision was closed using surgical staples. Six rats per treatment group were dosed once per day for eight consecutive days prior to and including the day of naloxone-induced opiate withdrawal (the hot flush session). The dosing commenced three days after surgical removal of the ovaries and was administered by oral gavage using a syringe and stainless steel gavage needle. […]
For the hot flush manipulations the animals were placed in a test cage. […] The tail-skin temperature was recorded until it was stable and the animals were then injected with naloxone HCl (1 mg/kg). […]

[5] = intravenous, two adult women, Fishman et al. 1970; cited from earlier work
[6] = test system: human breast cancer cells (MCF-7); details: in vitro cell proliferation, Jozan et al. 1981; cited from earlier work
immature rat uterus = details: continuous administration from a subcutaneous depot, Martucci et al. 1977; cited from earlier work
[7] = test system: estrogen receptors in the human endometrium; details: Tseng et al. 1978; cited from earlier work
[8] = molecular target: T2, rat uterine cytosol estrogen receptor (Rattus norvegicus, UniProt P06211); details: Martucci et al. 1976; cited from earlier work
T2 construct: rat uterine cytosol estrogen receptor; host or cells: rat uterus (cytosol; nuclear fraction)
T2 sequence (P06211 1-600): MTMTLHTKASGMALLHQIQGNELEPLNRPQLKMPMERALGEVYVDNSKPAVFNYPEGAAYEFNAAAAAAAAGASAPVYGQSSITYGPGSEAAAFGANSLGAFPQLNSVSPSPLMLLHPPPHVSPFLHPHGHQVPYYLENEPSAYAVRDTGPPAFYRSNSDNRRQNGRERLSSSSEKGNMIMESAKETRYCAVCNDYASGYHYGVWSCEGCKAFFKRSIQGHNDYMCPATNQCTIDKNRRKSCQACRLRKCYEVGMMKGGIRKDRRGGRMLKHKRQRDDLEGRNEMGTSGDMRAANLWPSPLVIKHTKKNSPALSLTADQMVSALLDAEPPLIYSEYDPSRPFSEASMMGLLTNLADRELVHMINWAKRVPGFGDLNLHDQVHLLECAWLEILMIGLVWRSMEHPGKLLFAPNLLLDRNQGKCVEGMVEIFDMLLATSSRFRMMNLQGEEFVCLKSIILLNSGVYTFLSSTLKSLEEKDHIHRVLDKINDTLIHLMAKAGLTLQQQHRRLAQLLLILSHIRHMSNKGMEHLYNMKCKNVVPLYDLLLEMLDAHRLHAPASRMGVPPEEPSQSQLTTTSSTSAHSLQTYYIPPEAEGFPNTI

[9] = molecular target: T3, rat uterine nuclear estrogen receptor (Rattus norvegicus, UniProt P06211); details: Martucci et al. 1976; cited from earlier work
T3 construct: rat uterine cytosol estrogen receptor; host or cells: rat uterus (cytosol; nuclear fraction)
T3 sequence (P06211 1-600): T2 sequence (P06211 1-600)

C[C@]12CCC(=O)C[C@@H]1CC[C@@H]1[C@@H]2CC[C@]2(C)[C@@H](O)CC[C@@H]12 [5α-dihydrotestosterone]
relative binding affinity for human SHBG [1]: in this order, show an increased relative binding affinity

C[C@]12CC[C@@H]3c4ccc(O)cc4CC[C@H]3[C@@H]1[C@@H](O)[C@@H](O)[C@@H]2O [E4, 1,3,5(10)-estratrien-3,15α,16α,17β-tetrol]
onset of vaginal cornification (animals responding at days 1-3) (ovariectomized rats): as fast as in EE-treated animals
total and trabecular bone mineral content and bone mineral density, dose dependence (Sham- and OVX-rats [2]): consistent dose-dependent increase
declines in maximum load, stiffness, energy and ultimate strength (Sham- and OVX-rats [3]): prevented the declines
effect on naloxone-induced TST, dose dependence ([4]; oral treatment, all doses): clear dose-dependent effect
effect on naloxone-induced TST compared with EE ([4]; po 3.0 mg/kg/day (highest dose)): suppressive response similar to the potent oral estrogen, 17α-ethinyl estradiol (EE)
effect on naloxone-induced TST ([4]; po 0.3, 1.0 and 3.0 mg/kg/day (three highest doses)): attenuated the TST
relative binding affinity for human SHBG [1]: negligible
excretion [5]: rapidly and completely excreted in urine as the glucosiduronate
metabolism [5]: virtually no metabolism except for conjugation took place
agonistic potency, of the magnitude observed for 17β-estradiol [6]: 2%
uterotrophic activity (immature rat uterus): very weak uterotrophic activity
relative binding, of 17β-estradiol [7]: 1.5%
relative binding affinity, of 17β-estradiol (100%) [8]: 0.5%
relative binding affinity, of 17β-estradiol (100%) [9]: 0.3%

C[C@]12CC[C@H]3[C@@H](CCC4=CC(=O)CC[C@@]43C)[C@@H]1CC[C@@H]2O [testosterone]
relative binding affinity for human SHBG [1]: in this order, show an increased relative binding affinity
